Source: US20030166139A1 (priority 2001, published 2003)
Where two headings read alike, the source gives them in different places.

What was measured:
EDIM rotavirus = tested on: EDIM rotavirus; design: species or system mice; settings: mouse, in vivo
[1] = in vivo; cited from earlier work

Substance | % Protection (EDIM rotavirus) [%] | also measured
QEYAIPVGPVFPPGMNWTDLITNYSPSRED [compound 10] | 0 | 
PDAERFSFPRVINSADGA [compound 2] | 70 | 
MTPAVTALFPNAQPFEHHATVGLTLRIDSA [compound 7] | 0 | 
HATVLTLRIDSAICESVLADASETMLANV [compound 8] | 51 | 
RNFDTIRLSFQLMRPPNMTPAVTAL [Peptide #6] | 85 | 
TDLITNYSPSREDNLQRVFTVASIRSMLVK [compound 11] | 65 | 
QS-21 [reference compound] |  | % Protection from rotavirus shedding (EDIM rotavirus): 43%; % Protection from rotavirus shedding (EDIM rotavirus; po): 71%; safety in human clinical trials [1]: safe
FSFPRVINSADGATTWYFNPVILRPNNVEV [compound 3] | 58 | 
NGQVINTYQARFGTIVARNFDTIRLSFQLM [compound 5] | 0 | 
RLSFQLMRPPNMTP [Peptide #6-14] | 98 | 
FNPVILRPNNVEVEFLLNGQVINTYQARF [compound 4] | 77 | 
VLADASETMLANVTSVRQEYAI [compound 9] | 0 | 
CAINAPANIQQFEHIVQLRRVLTTA [compound 1] | 0 | 
